Source: US12617804B2, “Conjugation-fused bipolar redox-active molecule, preparation method, and application thereof” (Hangzhou Normal University, priority 2021, dated 2026)

How the values were obtained:
[1] = Miscibility of QPT-TEG with polar organic solvents; assay type: physicochemical; details: acetonitrile, dimethyl sulfoxide, dichloromethane and other solvents, in any ratio
Excerpt: The bipolar redox-active molecule with the above structure (QPT-TEG) is a […] fluid that is miscible with most polar organic solvents. QPT-TEG is able to increase the overall solubility of the molecule by introducing long ether chains without changing the redox potential of the designed redox subject molecule.

[2] = Cyclic voltammetry (CV), TBA-TFSI supporting electrolyte in acetonitrile; assay type: physicochemical
Experimental: Redox kinetics of QPT-OMe obtained in Embodiment 1 is tested by cyclic voltammetry (CV). Tetrabutylammonium bis(trifluoromethylsulfonyl)imide (TBA-TF SI) is used as a supporting electrolyte and acetonitrile as a solvent. The results are shown in FIG. 3, where two pairs of symmetrical cathodic and anodic peaks can be clearly observed. The half-wave potentials of −2.04 and 0.72 V (with respect to Ag^+/Ag) correspond to the reduction and oxidation reactions of QPT-OMe, respectively. The open-circuit voltage is about 2.76 V when using QPT-OMe as the active material in the RFB, which is one of the highest value for bipolar molecules so far.
Furthermore, the QPT-OMe/QPT-OMe and QPT-P-OMe/QPT-OMe redox pairs show high rate constants of 1.4×10^−2 and 1.6×10-2 cm s^−1, respectively, by calculation. This is probably due to the relatively low recombination energy required for single electron transfer to occur from a large off-domain π-conjugated system. The high rate constants also imply negligible voltage loss when electrochemical reactions occur at the electrode surface.
The redox kinetics of QPT-TEG obtained in Embodiment 4 is tested by cyclic voltammetry (CV). Tetrabutylammonium bis(trifluoromethylsulfonyl)imide (TBA-TF SI) is used as a supporting electrolyte and acetonitrile as a solvent.

[3] = with respect to Ag+/Ag, TBA-TFSI, acetonitrile

| miscibility with solvents [1] | redox behavior in CV ([2]; compared with QPT-OMe, FIG. 5) | electrochemical window [2] [V] | open-circuit voltage as active material in the RFB ([2]; from the two half-wave potentials) | half-wave potential, oxidation reaction [2, 3] [V] | half-wave potential, reduction reaction [2, 3] [V] | Compound | rate constant, QPT-OMe/QPT-OMe redox pair ([2]; first-named redox pair, by calculation) [cm/s] |
| --- | --- | --- | --- | --- | --- | --- | --- |
| miscible | basically the same as that of QPT-OMe | – | – | – | – | COCCOCCOCCOc1ccc2c(c1)c(=O)c1cccc3c1n2-c1ccccc1S3 [QPT-TEG] | – |
| – | – | ~3 | about 2.76 V | 0.72 | −2.04 | COc1ccc2c(c1)c(=O)c1cccc3c1n2-c1ccccc1S3 [QPT-OMe] | 0.014 |
